The values below are quoted from earlier work in patent US20150325856A1, “ENVIRONMENTALLY FRIENDLY INKJET-PRINTABLE LITHIUM BATTERY CATHODE FORMULATIONS, METHODS AND DEVICES” (NEW JERSEY INSTITUTE OF TECHNOLOGY, priority 2014, published 2015).

Series [1] relates to rabbits.
Series [2] has as its system rats. The conditions noted are these: whole body exposure.
Series [3] has as its system rats. The conditions noted are these: heads only.
Series [4] has as its system rats, mice, guinea-pigs and rabbits.
The subject of series [5] is rabbits. The following applies: Ansell and Fowler, as cited in WHO 2001.

Read-outs that look alike come from different tables or passages of the source. Bounds are passed on as bounds.

On to `CN1CCCC1=O` [NMP, N-methyl-pyrrolidone], for which the “Tox. Cat. (dermal LD50)” value with rats and rabbits (dermal) was “(Tox. Cat. III-IV)”. Besides, in the series on rats and rabbits (rats and rabbits, Bartsch et al., as cited in WHO 2001, Wallen 1992), the “Dermal LD50” value is listed as 4000-10,000 mg/kg. The “Primary Eye Irritation, recovery” value with rabbits [1] is “recovered after 21 days post dosing”. Moreover, the “Primary Eye Irritation” value in the series on rabbits [1] (causing corneal opacity, iritis and conjunctivitis, Ansell and Fowler, as cited in WHO 2001) is on record as “Moderate (causing”. Also, the “Inhalation LC50” value in the series with rats [2] was “(1700 mg/m^3)”; in the series with rats [2] (E. I. DuPont de Nemours & Co. 1977, as cited in WHO 2001), “=1.7 mg/L”; in the series with rats [3], “(5100 mg/m^3)”; in the series with rats [3] (BASF, 1988, as cited in WHO 2001), over 5.1 µg/mL. Also, in series [4] (oral), the “Tox. Cat. (oral LD50)” value is “(Tox. Cat. III-IV)”. Also, the “Oral LD50” value in series [4] (rats, mice, guinea-pigs and rabbits, Ansell and Fowler, 1988, as cited in WHO 2001) was 3900 to 7900 mg/kg. Also, in the series with rabbits [5], the “Primary Skin Irritation” value is “Practically non-”.
